From ChEMBL document CHEMBL4049405, “Investigation on cellular uptake and pharmacodynamics of DOCK2-inhibitory peptides conjugated with cell-penetrating peptides” (Bioorg Med Chem, 2017)
Each block holds one compound with its values, some of them ahead of it. Activity calls are given as the source filed them. The rule behind the calls is not given here. Positions of bridges follow the written chain, without caps; N, C: chain ends. Non-standard residues stand in square brackets, D forms with d. Residues, ends and D or L forms follow the SMILES beside them. *: point of attachment. X2 = CC(=O)[C@H]1CSC(c2nc3ccc(OC(=O)OCCCS*)cc3s2)=N1; Nle = CCCC[C@H](N)C(=O)O

Legend:
[1] = molecular target: T1, Dedicator of cytokinesis protein 2 (Homo sapiens, UniProt Q92608); assay: Inhibition of GST-fused Rac1 (unknown origin) binding to recombinant N-terminal trigger factor/C-terminal SBP-tagged DOCK2 DHR-2 binding domain (unknown origin) expressed in mammalian cells assessed as reduction in Rac GEF activity pretreated for 1 hr followed by GST-fused Rac1 addition after 1 hr by ELISA; assay type: cell-based
[2] = Drug uptake in HEK293T cells expressing luciferase reporter gene at 50 uM measured every 3 mins for 60 mins by luminescence assay relative to 50 uM luciferin; assay type: ADME, cell-based; details: human, hek-293t, 1 h
[3] = Cytotoxicity against HEK293T cells assessed as cell viability at 50 uM by CellTiter-Glo assay relative to control; details: human
in vitro [4] = details: human, HEK293T cells
Description: Cytotoxicity against HEK293T cells assessed as cell viability at 6.3 uM by CellTiter-Glo assay relative to control

in vitro [5] = details: human, HEK293T cells; remark: listed apart in the source
Description: Cytotoxicity against HEK293T cells assessed as cell viability at 12.5 uM by CellTiter-Glo assay relative to control

in vitro [6] = details: human, HEK293T cells; remark: listed apart in the source
Description: Cytotoxicity against HEK293T cells assessed as cell viability at 25 uM by CellTiter-Glo assay relative to control

Mino [7] = assay: Antimigratory activity against human Mino cells assessed as inhibition of S1P stimulated cell migration at 1.1 uM measured after 30 mins by Cell-titer Glo assay; assay type: functional, cell-based
Mino [8] = assay: (§1) Antimigratory activity against human Mino cells assessed as inhibition of S1P stimulated cell migration at 10 uM measured after 30 mins by Cell-titer Glo assay relative to control; assay type: functional
[9] = molecular target: T1, Dedicator of cytokinesis protein 2; assay: Inhibition of Rac1 binding to biotinylated DOCK2 (unknown origin) by ELISA
Mino [10] = assay: (§2) Antimigratory activity against human Mino cells assessed as inhibition of S1P stimulated cell migration at 3.3 uM measured after 30 mins by Cell-titer Glo assay relative to control; assay type: functional
[11] = as §1; assay type: functional; details: 0.5 h
[12] = as §2; assay type: functional; details: 0.5 h
[13] = molecular target: T1, Dedicator of cytokinesis protein 2; assay: Inhibition of DOCK2 (unknown origin) GEF activity
[14] = molecular target: T1, Dedicator of cytokinesis protein 2; assay: Inhibition of Rac1 binding to DOCK2 (unknown origin) by ELISA

T1 sequence (Q92608 whole entry, the tested form may be a part): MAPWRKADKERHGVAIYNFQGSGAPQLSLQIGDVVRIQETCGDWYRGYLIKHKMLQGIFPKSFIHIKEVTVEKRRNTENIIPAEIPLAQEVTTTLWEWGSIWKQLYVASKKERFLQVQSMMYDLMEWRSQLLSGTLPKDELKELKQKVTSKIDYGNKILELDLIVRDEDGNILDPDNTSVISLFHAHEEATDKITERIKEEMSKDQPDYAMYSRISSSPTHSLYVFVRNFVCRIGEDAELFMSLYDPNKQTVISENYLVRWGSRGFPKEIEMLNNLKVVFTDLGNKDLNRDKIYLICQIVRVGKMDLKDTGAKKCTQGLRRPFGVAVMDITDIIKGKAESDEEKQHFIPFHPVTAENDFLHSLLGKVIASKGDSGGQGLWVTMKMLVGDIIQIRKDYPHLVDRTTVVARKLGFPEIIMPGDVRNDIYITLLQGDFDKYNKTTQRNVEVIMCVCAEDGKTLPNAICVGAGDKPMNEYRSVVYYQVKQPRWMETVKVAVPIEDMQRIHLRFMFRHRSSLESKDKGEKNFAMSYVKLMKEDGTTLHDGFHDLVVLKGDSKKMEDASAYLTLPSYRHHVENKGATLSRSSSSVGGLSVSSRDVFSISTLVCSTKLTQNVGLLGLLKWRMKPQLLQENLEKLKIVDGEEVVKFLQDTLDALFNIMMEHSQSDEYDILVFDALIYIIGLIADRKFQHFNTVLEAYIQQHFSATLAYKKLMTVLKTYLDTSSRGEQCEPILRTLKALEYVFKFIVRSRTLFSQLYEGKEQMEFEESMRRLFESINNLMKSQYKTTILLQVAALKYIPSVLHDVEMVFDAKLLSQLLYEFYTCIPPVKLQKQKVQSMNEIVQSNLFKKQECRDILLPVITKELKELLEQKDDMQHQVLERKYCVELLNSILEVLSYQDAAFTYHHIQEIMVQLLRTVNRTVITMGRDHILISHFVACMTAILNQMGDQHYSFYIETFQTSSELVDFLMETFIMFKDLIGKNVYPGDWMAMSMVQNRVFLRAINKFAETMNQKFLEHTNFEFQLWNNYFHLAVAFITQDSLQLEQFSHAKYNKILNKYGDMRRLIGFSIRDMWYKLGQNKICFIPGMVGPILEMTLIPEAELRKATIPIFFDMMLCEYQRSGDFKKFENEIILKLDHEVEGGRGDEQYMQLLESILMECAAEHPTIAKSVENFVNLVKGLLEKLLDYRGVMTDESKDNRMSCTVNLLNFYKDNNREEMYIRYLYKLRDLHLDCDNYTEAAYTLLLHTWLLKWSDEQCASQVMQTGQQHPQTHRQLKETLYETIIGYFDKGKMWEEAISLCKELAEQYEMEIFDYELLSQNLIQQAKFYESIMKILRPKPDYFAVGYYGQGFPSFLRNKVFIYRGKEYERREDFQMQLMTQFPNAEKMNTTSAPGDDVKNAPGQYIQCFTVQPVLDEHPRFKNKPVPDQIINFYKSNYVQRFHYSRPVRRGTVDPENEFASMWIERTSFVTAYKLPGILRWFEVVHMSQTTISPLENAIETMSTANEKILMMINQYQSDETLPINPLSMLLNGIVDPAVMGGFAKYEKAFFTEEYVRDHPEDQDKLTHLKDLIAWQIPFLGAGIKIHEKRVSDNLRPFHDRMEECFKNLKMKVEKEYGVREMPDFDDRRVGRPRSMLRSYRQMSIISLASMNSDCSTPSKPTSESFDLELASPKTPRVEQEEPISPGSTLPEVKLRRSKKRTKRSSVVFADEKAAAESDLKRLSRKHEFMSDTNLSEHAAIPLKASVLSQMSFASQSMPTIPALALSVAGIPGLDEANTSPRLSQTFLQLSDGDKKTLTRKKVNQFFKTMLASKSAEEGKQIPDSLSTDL

- fold change (FC) [2]: 66.8
SMILES: CC(=O)N[C@@H](CSSCCCOC(=O)Oc1ccc2nc(C3=N[C@@H](C(C)=O)CS3)sc2c1)C(=O)N[C@H]1CSSC[C@@H](C(=O)N[C@@H](CCCNC(=N)N)C(=O)N[C@@H](CCCNC(=N)N)C(=O)N[C@@H](CCCNC(=N)N)C(=O)N[C@H](C(=O)N[C@@H](CCCNC(=N)N)C(=O)N[C@H](C(=O)N[C@@H](CC(C)C)C(=O)N[C@@H](CCCCN)C(=O)N[C@@H](CCCNC(=N)N)C(=O)N[C@@H](Cc2c[nH]c3ccccc23)C(=O)N[C@@H](CCCCN)C(=O)N[C@@H](CC(C)C)C(=O)N[C@@H](Cc2ccccc2)C(N)=O)C(C)C)[C@@H](C)O)NC(=O)[C@H](Cc2c[nH]c3ccccc23)NC(=O)[C@@H]2CCCN2C(=O)[C@H](Cc2ccc(O)cc2)NC(=O)CNC(=O)[C@H](Cc2cnc[nH]2)NC(=O)[C@H](Cc2ccc(O)cc2)NC(=O)[C@H](CCCCN)NC(=O)[C@H](C)NC(=O)[C@H](C(C)C)NC1=O (Ac-C(X2)CVAKYHGYPWCRRRTRVLKRWKLF-NH2; disulfide 2-12)
- viability at 50 µM [3]: 85.9%
- viability at 6.3 µM (in vitro [4]): 99.1%
- viability at 12.5 µM (in vitro [5]): 108%
- viability at 25 µM (in vitro [6]): 97.1%

- IC50 [9]: 95 nM
SMILES: CCCC[C@H](NC(=O)[C@H](CCCNC(=N)N)NC(=O)[C@H](CCCNC(=N)N)NC(=O)[C@H](CC(N)=O)NC(=O)[C@H](CCC(N)=O)NC(=O)[C@H](Cc1ccccc1)NC(=O)[C@H](Cc1c[nH]c2ccccc12)NC(=O)[C@@H](NC(=O)[C@H](CCCCN)NC(=O)[C@@H](NC(=O)[C@H](CCC(N)=O)NC(=O)[C@H](CCCNC(=N)N)NC(=O)[C@H](CCCNC(=N)N)NC(=O)[C@H](CCCNC(=N)N)NC(=O)[C@H](CCCNC(=N)N)NC(=O)[C@@H]1CSSC[C@H](NC(C)=O)C(=O)N[C@@H](C(C)C)C(=O)N[C@@H](C)C(=O)N[C@@H](CCCCN)C(=O)N[C@@H](Cc2ccc(O)cc2)C(=O)N[C@@H](Cc2cnc[nH]2)C(=O)NCC(=O)N[C@@H](Cc2ccc(O)cc2)C(=O)N2CCC[C@H]2C(=O)N[C@@H](Cc2c[nH]c3ccccc23)C(=O)N1)[C@@H](C)CC)[C@@H](C)CC)C(=O)N[C@@H](CCCCN)C(=O)N[C@@H](Cc1c[nH]c2ccccc12)C(=O)N[C@@H](CCCCN)C(=O)N[C@@H](CCCCN)C(N)=O (Ac-CVAKYHGYPWCRRRRQIKIWFQNRR[Nle]KWKK-NH2; disulfide 1-11)
- inhibition (Mino [7]): Active
- inhibition (Mino [10]): Active

- IC50 [9]: 8 nM
SMILES: CC(=O)N[C@H]1CSSC[C@@H](C(=O)N[C@@H](CCCNC(=N)N)C(=O)N[C@@H](CCCNC(=N)N)C(=O)N[C@@H](CCCNC(=N)N)C(=O)N[C@@H](CCCNC(=N)N)C(=O)N[C@@H](CCCNC(=N)N)C(=O)N[C@@H](CCCNC(=N)N)C(=O)N[C@@H](CCCNC(=N)N)C(=O)N[C@@H](CCCNC(=N)N)C(N)=O)NC(=O)[C@H](Cc2c[nH]c3ccccc23)NC(=O)[C@@H]2CCCN2C(=O)[C@H](Cc2ccc(O)cc2)NC(=O)CNC(=O)[C@H](Cc2cnc[nH]2)NC(=O)[C@H](Cc2ccc(O)cc2)NC(=O)[C@H](CCCCN)NC(=O)[C@H](C)NC(=O)[C@H](C(C)C)NC1=O (Ac-CVAKYHGYPWCRRRRRRRR-NH2; disulfide 1-11)
- inhibition (Mino [7]): Active
- inhibition at 10 µM [11]: > 89%
- inhibition at 3.3 µM [12]: > 89%

- IC50 [9]: 31 nM
SMILES: CC(=O)N[C@H]1CSSC[C@@H](C(=O)N[C@@H](CCCNC(=N)N)C(=O)N[C@@H](CCCNC(=N)N)C(=O)N[C@@H](CCCNC(=N)N)C(=O)N[C@H](C(=O)N[C@@H](CCCNC(=N)N)C(=O)N[C@H](C(=O)N[C@@H](CC(C)C)C(=O)N[C@@H](CCCCN)C(=O)N[C@@H](CCCNC(=N)N)C(=O)N[C@@H](Cc2c[nH]c3ccccc23)C(=O)N[C@@H](CCCCN)C(=O)N[C@@H](CC(C)C)C(=O)N[C@@H](Cc2ccccc2)C(N)=O)C(C)C)[C@@H](C)O)NC(=O)[C@H](Cc2c[nH]c3ccccc23)NC(=O)[C@@H]2CCCN2C(=O)[C@H](Cc2ccc(O)cc2)NC(=O)CNC(=O)[C@H](Cc2cnc[nH]2)NC(=O)[C@H](Cc2ccc(O)cc2)NC(=O)[C@H](CCCCN)NC(=O)[C@H](C)NC(=O)[C@H](C(C)C)NC1=O (Ac-CVAKYHGYPWCRRRTRVLKRWKLF-NH2; disulfide 1-11)
- inhibition (Mino [7]): Active
- inhibition at 10 µM [11]: > 89%
- inhibition at 3.3 µM [12]: > 89%

Further lines, the compound ahead of its results:

SMILES: O=C1NN(c2ccccc2)C(=O)/C1=C/C=C/c1ccccc1Cl
- IC50 [1]: 22800 nM

SMILES: CC(=O)N[C@H]1CSSC[C@@H](C(=O)N[C@@H](CCCNC(=N)N)C(=O)N[C@@H](CCCNC(=N)N)C(=O)N[C@@H](CCCNC(=N)N)C(N)=O)NC(=O)[C@H](Cc2c[nH]c3ccccc23)NC(=O)[C@@H]2CCCN2C(=O)[C@H](Cc2ccc(O)cc2)NC(=O)CNC(=O)[C@H](Cc2cnc[nH]2)NC(=O)[C@H](Cc2ccc(O)cc2)NC(=O)[C@H](CCCCN)NC(=O)[C@H](C)NC(=O)[C@H](C(C)C)NC1=O (Ac-CVAKYHGYPWCRRR-NH2; disulfide 1-11)
- inhibition (Mino [7]): Active
- inhibition (Mino [8]): Active
- IC50 [9]: 11 nM

SMILES: CC(=O)N[C@H]1CSSC[C@@H](C(=O)N[C@@H](CCCNC(=N)N)C(=O)N[C@@H](CCCNC(=N)N)C(=O)N[C@@H](CCCNC(=N)N)C(=O)N[C@@H](C)C(=O)N[C@@H](CC(C)C)C(=O)N[C@@H](Cc2c[nH]c3ccccc23)C(=O)N[C@@H](CCCCN)C(=O)N[C@H](C(=O)N[C@@H](CC(C)C)C(=O)N[C@@H](CC(C)C)C(=O)N[C@@H](CCCCN)C(=O)N[C@@H](CCCCN)C(=O)N[C@H](C(=O)N[C@@H](CC(C)C)C(=O)N[C@@H](CCCCN)C(=O)N[C@@H](C)C(=O)N2CCC[C@H]2C(=O)N[C@@H](CCCCN)C(=O)N[C@@H](CCCCN)C(=O)N[C@@H](CCCCN)C(=O)N[C@@H](CCCNC(=N)N)C(=O)N[C@@H](CCCCN)C(=O)N[C@H](C(N)=O)C(C)C)C(C)C)[C@@H](C)O)NC(=O)[C@H](Cc2c[nH]c3ccccc23)NC(=O)[C@@H]2CCCN2C(=O)[C@H](Cc2ccc(O)cc2)NC(=O)CNC(=O)[C@H](Cc2cnc[nH]2)NC(=O)[C@H](Cc2ccc(O)cc2)NC(=O)[C@H](CCCCN)NC(=O)[C@H](C)NC(=O)[C@H](C(C)C)NC1=O (Ac-CVAKYHGYPWCRRRALWKTLLKKVLKAPKKKRKV-NH2; disulfide 1-11)
- inhibition (Mino [7]): Active
- IC50 [9]: 71 nM
- inhibition (Mino [10]): Active

SMILES: CC(C)C[C@H](N)C(=O)N[C@@H](CC(N)=O)C(=O)N[C@@H](CCCNC(=N)N)C(=O)N[C@H]1CSSC[C@@H](C(=O)N[C@@H](CCCNC(=N)N)C(=O)N[C@@H](CCCNC(=N)N)C(=O)N[C@@H](CCCNC(=N)N)C(=O)O)NC(=O)[C@H](Cc2c[nH]c3ccccc23)NC(=O)[C@@H]2CCCN2C(=O)[C@H](Cc2ccc(O)cc2)NC(=O)CNC(=O)[C@H](Cc2cnc[nH]2)NC(=O)[C@H](Cc2ccc(O)cc2)NC(=O)[C@H](CCCCN)NC(=O)[C@H](C)NC(=O)[C@H](C(C)C)NC1=O (H-LNRCVAKYHGYPWCRRR-OH; disulfide 4-14)
- IC50 [13]: 35 nM
- IC50 [14]: 6 nM
